Results: US20160009697A1, “PYRIDINE DERIVATIVES AS 5-HT6 RECEPTOR ANTAGONISTS” (Selvita S.A., priority 2013, published 2016)

Legend:
D2 receptor = molecular target: T1, D2 receptor (Homo sapiens, UniProt P14416); experiment: Dopamine receptor D2 binding affinity, competitive radioligand binding with [3H]methyl-spiperone; conditions: membranes of recombinant cells, [3H]methyl-spiperone 0.2 nM, 60 min at 37° C.
T1 construct: expressed in transfected cells; membrane homogenates
Protocol: Dopamine receptor D2 binding affinity of compounds of formula I was also evaluated. […] After a 60 minute incubation at 37° C., the incubation was terminated by vacuum filtration. The filters were washed with buffer and the filters were counted for radioactivity using liquid scintillation spectrometry. Concentrations ranging from 10^−12 M to 10^−5 M of the test compound were evaluated. […] Binding in the presence of varying concentrations of test compound is expressed as a percentage of specific binding in the absence of test compound. The results are plotted as log % bound versus log concentration of test compound. […] A linear regression line of data points is plotted, from which the IC50 value is determined and the Ki value is determined based upon the following equation: […]

[1] = molecular target: T2, short form of human D2 receptor (Homo sapiens, UniProt P14416); experiment: D2 functional assay (cAMP-Glo, CHO cells); format: cell-based; conditions: forskolin 10 μM, read-out: D2 antagonist Kb
T2 construct: expressed in transfected cells; host or cells: CHO cells
T2 sequence (P14416 1-414 isoform P14416-2): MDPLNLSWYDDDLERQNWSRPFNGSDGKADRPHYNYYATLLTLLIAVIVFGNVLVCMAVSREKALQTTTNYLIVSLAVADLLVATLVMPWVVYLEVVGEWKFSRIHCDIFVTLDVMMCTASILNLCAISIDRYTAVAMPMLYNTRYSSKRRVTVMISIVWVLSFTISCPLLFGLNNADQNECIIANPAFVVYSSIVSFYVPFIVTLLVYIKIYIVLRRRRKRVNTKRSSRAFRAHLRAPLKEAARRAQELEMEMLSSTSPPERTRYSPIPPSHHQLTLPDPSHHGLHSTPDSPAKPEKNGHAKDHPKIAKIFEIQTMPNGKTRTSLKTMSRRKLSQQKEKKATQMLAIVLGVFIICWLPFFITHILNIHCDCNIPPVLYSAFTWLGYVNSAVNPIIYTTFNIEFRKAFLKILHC
Protocol: Dopamine D2 receptor inhibits adenylyl cyclase activity. CHO cells (Chinese Hamster Ovary cell-line) transfected with short form of human D2 receptor were used for D2 functional testing. Cells were seeded at a density of 10 000 cells/well in white-walled 96-well plates one day before the experiment. Forskolin at 10 μM was used to increase the intracellular level of cAMP. Compounds were tested according to the procedure from cAMP-Glo™ kit manufacturer's instruction.

human H1 receptor = molecular target: T3, human H1 receptor (Homo sapiens, UniProt P35367); experiment: H1 functional assay (calcium response, CHO cells); format: cell-based; conditions: agonist histamine, 30 min preincubation, Fluo-4NW calcium, read-out: H1 antagonist Kb
T3 construct: expressed in transfected cells; host or cells: CHO cells
T3 sequence (P35367 whole entry): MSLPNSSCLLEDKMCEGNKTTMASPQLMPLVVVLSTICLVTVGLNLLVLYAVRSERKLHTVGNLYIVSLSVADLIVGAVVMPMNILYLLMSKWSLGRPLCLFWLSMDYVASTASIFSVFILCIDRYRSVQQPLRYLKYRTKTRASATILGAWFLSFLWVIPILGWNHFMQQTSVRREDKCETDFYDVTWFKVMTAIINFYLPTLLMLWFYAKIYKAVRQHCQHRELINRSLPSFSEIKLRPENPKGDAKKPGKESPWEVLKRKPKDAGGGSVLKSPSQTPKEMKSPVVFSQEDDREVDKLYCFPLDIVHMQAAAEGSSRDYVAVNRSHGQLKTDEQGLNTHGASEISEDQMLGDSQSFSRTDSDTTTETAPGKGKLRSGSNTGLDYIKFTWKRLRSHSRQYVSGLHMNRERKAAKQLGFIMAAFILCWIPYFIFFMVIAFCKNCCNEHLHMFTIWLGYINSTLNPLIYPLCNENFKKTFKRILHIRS
Text: (§1) The histamine receptor H1 is linked to an intracellular G-protein (Gq) that activates phospholipase C and the phosphatidylinositol (PIP2) signaling pathway. The pathway starts with stimulation of the receptor and further activation of phospholipase C (PLC). Inositol-1,4,5-triphosphate (IP3), which is one of the products of PLC activity, binds to IP3 receptor in smooth ER. Opening of IP3R, which acts as a calcium ion channel, causes an increase in Ca^2+ concentration in the cytosol, which can be quantitatively measured using calcium-sensitive fluorescent dyes.
H1 antagonism was measured in CHO cells (Chinese Hamster Ovary cell-line) transfected with pcDNA for human H1 receptor. Cells were dispensed into 96-well assay plates at a density of 25 000-30 000 cells per well and, following over night recovery, assayed for calcium response. Tests were performed using Fluo-4NW Calcium Assay Kit (Molecular Probes #F36206) and standard testing procedure for this kit. Cells were preincubated with test compound for 30 min, then endogenous agonist histamine was added. Fluorescence was measured by FLEXstation 3 (Molecular Devices). The apparent dissociation constants (Kb) were calculated by means of GraphPhad Prism 5 software using the modified Cheng Prusoff equation (Kb=IC50/(1+(A/EC50A)), where A=concentration of reference agonist in the assay and EC50A=EC50 value of the reference agonist). For each IC50 determination, agonist dose response curve is run in parallel with the antagonist, on the same experimental plate. Curves maximal and minimal values should be reached in assays and it is checked if Prism uses proper maximal and minimal values for curve fitting.

human alpha1 receptor = experiment: Alpha1 functional assay (calcium response, LNCaP cells); format: cell-based; conditions: agonist noradrenaline, 30 min preincubation, Fluo-4NW calcium, read-out: Alpha1 antagonist Kb
Text: as §1, with “alpha-1 (α1) adrenergic” for “histamine”, “receptor” for “receptor H1”, “coupled” for “linked”, “the Gq heterotrimeric” for “an intracellular”, “G-protein” for “G-protein (Gq)”, “in” for “in the”
Alpha1 antagonism was measured in LNCaP (Human lymph node carcinoma of the prostate) cells expressing human alpha1 receptor. Cells were dispensed into 96-well assay plates at a density of 30 000 cells per well and, following over night recovery, assayed for calcium response. Tests were performed using Fluo-4NW Calcium Assay Kit (Molecular Probes #F36206) and standard testing procedure for this kit. Cells were preincubated with test compound for 30 min, then endogenous agonist noradrenaline was added. Fluorescence was measured by FLEXstation 3 (Molecular Devices). The apparent dissociation constants (Kb) were calculated by means of GraphPhad Prism 5 software using the modified Cheng Prusoff equation (Kb=IC50/(1+(A/EC50A)), where A=concentration of reference agonist in the assay and EC50A=EC50 value of the reference agonist). For each IC50 determination, agonist dose response curve is run in parallel with the antagonist, on the same experimental plate. Curves maximal and minimal values should be reached in assays, and it is checked if Prism uses proper maximal and minimal values for curve fitting.

human 5-HT6 [2] = molecular target: T4, human 5-HT6 (Homo sapiens, UniProt P50406); experiment: 5-HT6 binding affinity, competitive radioligand binding with [3H]-LSD
T4 sequence (P50406 whole entry): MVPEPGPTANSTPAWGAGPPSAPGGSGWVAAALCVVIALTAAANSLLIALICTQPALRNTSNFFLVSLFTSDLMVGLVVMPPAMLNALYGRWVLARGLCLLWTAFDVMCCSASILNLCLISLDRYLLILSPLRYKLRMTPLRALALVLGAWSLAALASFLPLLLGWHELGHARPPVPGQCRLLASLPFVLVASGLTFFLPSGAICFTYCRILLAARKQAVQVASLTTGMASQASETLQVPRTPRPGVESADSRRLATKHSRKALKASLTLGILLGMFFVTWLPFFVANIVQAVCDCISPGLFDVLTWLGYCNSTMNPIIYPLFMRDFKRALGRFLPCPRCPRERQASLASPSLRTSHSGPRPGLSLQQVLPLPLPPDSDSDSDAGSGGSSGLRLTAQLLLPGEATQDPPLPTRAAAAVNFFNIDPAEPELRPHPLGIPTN

human 5-HT6 [3] = molecular target: T4, human 5-HT6; experiment: 5-HT6 functional assay (calcium response, Chem-10 host cells); format: cell-based; design: host or cells: Chem-10 host cells, co-expressing a recombinant promiscuous G protein; conditions: agonist serotonin, 30 min preincubation, Fluo-4NW calcium, read-out: 5-HT6 antagonist Kb
Text: The serotonin receptor 5-HT6 is a Gs coupled receptor. In the brain it responds to serotonin and other agonists by increasing adenyl cyclase mediated production of cyclic AMP. 5-HT6 can be also functionally tested using different coupling types. Millipore's cloned human 5-HT6-expressing cell line is made in the Chem-10 host, which supports high levels of recombinant 5-HT6 expression on the cell surface and contains optimized levels of a recombinant promiscuous G protein to couple the receptor to the calcium signaling pathway. Cells were thawed, resuspended in media, dispensed into 96-well assay plates at a density of 27500 cells per well and, following over night recovery, assayed for calcium response. Tests were performed using Fluo-4NW Calcium Assay Kit (Molecular Probes #F36206) and standard testing procedure for this kit. Cells were preincubated with test compound for 30 min, then endogenous agonists serotonin was added. Fluorescence was measured by FLEXstation 3 (Molecular Devices). The apparent dissociation constants (Kb) were calculated by means of GraphPhad Prism 5 software using the modified Cheng Prusoff equation (Kb=IC50/(1+(A/EC50A)), where A=concentration of reference agonist in the assay and EC50A=EC50 value of the reference agonist). For each IC50 determination, agonist dose response curve is run in parallel with the antagonist, on the same experimental plate. Curves maximal and minimal values should be reached in assays and it is checked if Prism uses proper maximal and minimal values for curve fitting.

T1 sequence (P14416 whole entry): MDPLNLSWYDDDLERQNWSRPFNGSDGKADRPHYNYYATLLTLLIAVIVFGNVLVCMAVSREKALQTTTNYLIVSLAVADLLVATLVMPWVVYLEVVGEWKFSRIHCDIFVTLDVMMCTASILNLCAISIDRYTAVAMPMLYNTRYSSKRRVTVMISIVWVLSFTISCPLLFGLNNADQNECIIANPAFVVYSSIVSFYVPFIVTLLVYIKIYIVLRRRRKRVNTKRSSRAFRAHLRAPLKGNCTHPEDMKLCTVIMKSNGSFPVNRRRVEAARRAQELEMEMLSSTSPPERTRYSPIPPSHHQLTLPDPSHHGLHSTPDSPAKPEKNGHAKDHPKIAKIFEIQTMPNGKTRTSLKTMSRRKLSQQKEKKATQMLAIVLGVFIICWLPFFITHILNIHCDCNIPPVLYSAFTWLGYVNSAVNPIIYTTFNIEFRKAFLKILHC

| SMILES | Ki (D2 receptor) [nM] | Kb [1] [nM] | Kb (human H1 receptor) [nM] | Ki (human 5-HT6 [2]) [nM] | Kb (human 5-HT6 [3]) [nM] | Kb (human alpha1 receptor) [nM] |
| --- | --- | --- | --- | --- | --- | --- |
| CN1CCN(c2cc(-c3cscn3)cc(CC3CCOCC3)n2)CC1 [Example 4, 1-Methyl-4-[6-(oxan-4-ylmethyl)-4-(1,3-thiazol-4-yl)pyridin-2-yl]-piperazine] | > 10000 | 781 | > 5000 | 14.3 | 1.97 | 203 |
| COc1ccc(-c2cc(CC3CCOCC3)nc(N3CCC(N)CC3)c2)cc1 [Example 6, 1-[4-(4-Methoxyphenyl)-6-(oxan-4-ylmethyl)pyridin-2-yl]piperidin-4-amine] | > 10000 | > 3500 | > 1000 | 38.8 | > 1000 | > 2000 |
| COc1ccc(-c2cc(CC3CCOCC3)nc(N3CCN(C)CC3)c2)c(F)c1 [Example 5, 1-[4-(2-Fluoro-4-methoxyphenyl)-6-(oxan-4-ylmethyl)pyridin-2-yl]-4-methylpiperazine] | 1250 | > 2000 | 1230 | 22.8 | 5.06 | 171 |
| CN1CCN(c2cc(-c3ccc4ccccc4n3)cc(CC3CCOCC3)n2)CC1 [Example 2, 2-[2-(4-Methylpiperazin-1-yl)-6-(oxan-4-ylmethyl)pyridin-4-yl]quinoline] | 4100 | > 3500 | 462 | 39.6 | 204 | > 2000 |

The next lines start with results.

| Ki (D2 receptor) [nM] | Kb [1] [nM] | Kb (human H1 receptor) [nM] | Ki (human 5-HT6 [2]) [nM] | Kb (human 5-HT6 [3]) [nM] | SMILES | Kb (human alpha1 receptor) [nM] |
| --- | --- | --- | --- | --- | --- | --- |
| > 10000 | 340 | > 2000 | 12.2 | 0.01 | COc1ccc(-c2cc(C(C)C3CCOCC3)nc(N3CCN(C)CC3)c2)cc1 (stereo not drawn) [Example 7, 1-[4-(4-Methoxyphenyl)-6-[1-(oxan-4-yl)ethyl]pyridin-2-yl]-4-methyl-piperazine] | 29.3 |
| 1180 | > 2000 | > 5000 | 22.2 | 81.8 | CN1CCN(c2cc(-c3ccccn3)cc(CC3CCOCC3)n2)CC1 [Example 3, 1-Methyl-4-[6-(oxan-4-ylmethyl)-4-(pyridin-2-yl)pyridin-2-yl]piperazine] | 83.8 |
| > 10000 | > 3500 | 19.4 | 36.1 | 4.7 | COc1ccc(-c2cc(CC3CCOCC3)nc(N3CCNC(C)(C)C3)c2)cc1 [Example 8, 1-[4-(4-Methoxyphenyl)-6-(oxan-4-ylmethyl)pyridin-2-yl]-3,3-dimethylpiperazine] | 1600 |
